{
  "source": "paper PMC5864073",
  "about": "“A D-enantiomer of the antimicrobial peptide GL13K evades antimicrobial resistance in the Gram positive bacteria Enterococcus faecalis and Streptococcus gordonii” (PLoS ONE, 2018)",
  "key": {"[1]": {"tested_on": "E. faecalis OG1RF dltA (TX5427)", "assay": "Minimal inhibitory concentration, broth dilution", "assay_type": "cell-based, Enterococcus faecalis", "details": "THB, 20 h, 37°C, OD600, mean ± SEM", "experimental": "The minimal inhibitory concentration (MIC) assays were performed essentially as described for cationic AMPs, but using streptococcal growth-friendly THB without the addition of blood or serum components. A working stock of 1-5x10^5 CFU/ml in 90 or 100 μl THB was added to 10 or 20 μl of a 2-fold serial peptide dilution in 0.01% acetic acid and incubated for 20 h at 37°C in 96-well polypropylene plates. The OD at 600 nm (OD600) was determined in a Synergy HT plate reader (BioTek, Winooski, VT). Control wells for growth without peptide and growth medium without bacteria were included. Bacterial cell numbers in the inoculum were verified by colony count."}, "[2]": {"tested_on": "conditioned supernatant of protease-deficient E. faecalis (TX5128)", "assay": "Proteolysis of peptide by conditioned culture supernatant (P. aeruginosa Xen41 bioassay)", "assay_type": "in vitro ADME, Enterococcus faecalis", "details": "conditioned sterile-filtered supernatant of protease-deficient E. faecalis TX5128, peptide 32 mg/L, 2 h, 37°C; bioluminescence read-out after 15 min; three independent experiments", "experimental": "(§1) To test proteolytic processing of GL13K peptides, overnight bacterial cultures were centrifuged (5 min, 13,000 g) and the conditioned supernatants were sterile-filtered (0.22 μm, Corning). Filtered supernatant (16.8 μl) was incubated with 3.2 μl (3.2 μg) peptide at 37°C for 2 h to allow bacterial proteases in the supernatant to process the peptide. To determine residual peptide activity, 70 μl of 10 mM sodium phosphate buffer, pH 7.4 was added to each sample and then supplemented with 10 μl (10^8 CFU) of bioluminescent Pseudomonas aeruginosa Xen41 (Caliper Lifesciences; now Perkin Elmer, MA) that had been washed three times in 0.9% NaCl (final maximal peptide concentration 32 mg/L). Viability of the indicator bacteria was determined after 15 min incubation at 37°C by determining bioluminescence in a Synergy HT plate reader. The luminescence detected in the absence of added peptide was used as a measure of 100% proteolysis.\n(§2) Fig 1 Relative proteolysis of GL13K peptides. (A): Wild-type (OG1RF) or the protease-negative strain (TX5128) of E. faecalis was cultured on THA containing 3% gelatin. Gelatinase activity was visualized as a turbid halo around the bacterial colonies; (B): L-GL13K (L) or D-GL13K (D) (32 mg/L) was incubated with conditioned supernatant of wild-type (OG1RF) or the protease-negative strain (TX5128) of E. faecalis for 2 h. Residual peptide activity was determined by adding bioluminescent P. aeruginosa Xen41 to the mixture. Bioluminescence from surviving bacteria was used as a measure of proteolytic degradation of each peptide and expressed relative to bacterial bioluminescence in the absence of peptides (equivalent to 100% proteolysis). Data are shown as mean ± SEM from three independent experiments and were analyzed by paired t-test for each strain. n.s., not significant."}, "[3]": {"tested_on": "conditioned supernatant of wild-type E. faecalis (OG1RF)", "assay": "Proteolysis of peptide by conditioned culture supernatant (P. aeruginosa Xen41 bioassay)", "assay_type": "in vitro ADME, Enterococcus faecalis", "details": "conditioned sterile-filtered supernatant of E. faecalis OG1RF, peptide 32 mg/L, 2 h, 37°C; bioluminescence read-out after 15 min; three independent experiments", "experimental": "as §1, §2"}, "[4]": {"tested_on": "E. faecalis OG1RF", "assay": "Triton X-100 induced bacterial autolysis assay", "assay_type": "cell-based, Enterococcus faecalis", "details": "PBS with 0.05% Triton X-100, peptide 100 mg/L, OD600 for 180 min", "experimental": "The lysis assay followed an established protocol for bacterial autolysis with minor modifications. Exponentially growing cells were washed twice in PBS then washed once in ice-cold dH2O. The bacteria were incubated in PBS with 0.05% Triton X-100 and peptides at a concentration of 100 mg/L. OD600 was monitored spectrophotometrically for 180 min. In some experiments, the cells were incubated with the peptides for 2h in PBS+0.05% Triton X-100 and then cultured on THA to enumerate surviving cells.\nFig 2 Effect of GL13K peptides on Triton X-100 induced autolysis. E. faecalis OG1RF (A) or the autolysis-deficient strain TX5128 (B) were incubated in PBS with 0.05% Triton X-100 in the absence of peptide (control) or in the presence of 100 mg/L of L-GL13K or D-GL13K (D). The OD600 was recorded for 180 min and expressed as a percent of starting OD600 of the control sample. (C): Bactericidal activity of GL13K peptides in PBS+0.05% Triton X-100. E. faecalis OG1RF were incubated with 0.05% Triton X-100 in the absence of peptide (Ctrl) or with L-GL13K or D-GL13K for 2h. Surviving CFU were enumerated and are shown as mean ± SEM (N = 5). Peptide treated samples were compared to the untreated control by Kruskal-Wallis test with Dunn’s multiple comparison post-test. n.s., not significant."}, "[5]": {"tested_on": "E. faecalis dltA mutant (TX5427)", "assay": "Selection for peptide resistance, serial MIC assays", "assay_type": "cell-based, Enterococcus faecalis", "details": "serial passage at 0.5 x MIC, L-GL13K after two rounds, D-GL13K after seven rounds, three experiments", "experimental": "(§3) To investigate potential resistance development against the GL13K peptides, dilutions of the peptides were prepared and incubated as described for the MIC assay. The next day (day 0), the MIC was recorded and the culture in the well with the highest peptide concentration that allowed growth (i.e 0.5 x MIC) was diluted 1:100 and used as an inoculum for the next round of selection in a new MIC assay and so forth until a stable plateau of resistance was reached.\nFig 4 Development of resistance in E. faecalis. MICs for L-GL13K (circles) and D-GL13K (squares) were recorded on consecutive days using E. faecalis OG1RF (wild-type) (open symbols) (D-enantiomer only) and dltA (closed symbols). The MIC for each day is expressed relative to the starting MIC (day 0). Data from three experiments are shown as mean ± SEM."}, "[6]": {"tested_on": "S. gordonii DL1 (wild-type)", "assay": "Selection for peptide resistance, serial MIC assays", "assay_type": "cell-based, Streptococcus gordonii", "details": "repeated treatment with sub-inhibitory concentrations, 2–3 experiments", "experimental": "as §3\n(§4) Fig 6 Development of resistance in S. gordonii. MICs for L-GL13K (circles) and D-GL13K (squares) were recorded on consecutive days using S. gordonii DL1 (wild-type) (open symbols) (D-enantiomer only) and dltA (closed symbols). The MIC for each day is expressed relative to the starting MIC (day 0). Data from 2–3 experiments are shown as mean ± range."}, "[7]": {"tested_on": "S. gordonii dltA mutant", "assay": "Selection for peptide resistance, serial MIC assays", "assay_type": "cell-based, Streptococcus gordonii", "details": "repeated treatment with sub-inhibitory concentrations, 2–3 experiments", "experimental": "as §3, §4"}},
  "note": "Where a SMILES comes first, the peptide text is derived from it.",
  "data": [
    {"compound": "CC[C@H](C)[C@H](NC(=O)[C@H](CCCCN)NC(=O)CN)C(=O)N[C@H](C(=O)N[C@@H](CCCCN)C(=O)N[C@@H](CC(C)C)C(=O)N[C@@H](CCCCN)C(=O)N[C@@H](C)C(=O)N[C@@H](CO)C(=O)N[C@@H](CC(C)C)C(=O)N[C@@H](CCCCN)C(=O)N[C@@H](CC(C)C)C(=O)N[C@@H](CC(C)C)C(N)=O)[C@@H](C)CC", "note": "[L-GL13K, Gly-Lys-Ile-Ile-Lys-Leu-Lys-Ala-Ser-Leu-Lys-Leu-Leu-NH2] (H-GKIIKLKASLKLL-NH2; N-terminus assumed)", "values": [
      {"measurement": "MIC", "setting": "[1]", "value": "70 ± 17", "unit": "µg/mL"},
      {"measurement": "Proteolysis of peptide (loss of activity against bioluminescent P. aeruginosa Xen41)", "setting": "[2]", "value": "did not show significant proteolysis"},
      {"measurement": "Proteolysis of peptide (loss of activity against bioluminescent P. aeruginosa Xen41)", "setting": "[3]", "value": "almost complete proteolysis"},
      {"measurement": "Effect on Triton X-100 induced autolysis (OD600)", "setting": "[4]", "value": "somewhat reduced autolysis"},
      {"measurement": "Increase of MIC relative to starting MIC (day 0)", "setting": "[5]", "value": 8, "unit": "fold"},
      {"measurement": "Increase of MIC relative to starting MIC (day 0)", "setting": "[6]", "value": 6, "unit": "fold"},
      {"measurement": "Increase of MIC relative to starting MIC (day 0)", "setting": "[7]", "value": 16, "unit": "fold"}
    ]}
  ]
}
